Experimental findings from patent US20250313553A1, “ANNULATED 2-AMINO-3-CYANO THIOPHENES AND DERIVATIVES FOR THE TREATMENT OF CANCER” (Boehringer Ingelheim Int'l GmbH Corp., priority 2021, published 2025) are described below.

Assay [1] concerns NCI-H358 cells. Briefly: NCI-H358 CTG proliferation assay (120 h), assay 2. It counts as cell-based. The conditions noted are these: Homo sapiens, 384-well, 200 cells per well. As for the experimental part: (§1) NCI-H358 cells (ATCC No. CRL-5807) are dispensed into white bottom opaque 96 well plates (Perkin Elmer cat no. 5680) at a density of 2000 cells per well in 100 μL RPMI-1640 ATCC-Formulation (Gibco #A10491)+10% FCS (fetal calf serum) (assay 1) or into black 384-well plates, flat and clear bottom (Greiner, PNr. 781091) at a density of 200 cells per well in 60 μl RPMI-1640 ATCC-Formulation (Gibco #A10491)+10% FCS (fetal calf serum) (assay 2). […] Compounds (10 mM stock in DMSO) are added at logarithmic dose series using the HP Digital Dispenser D300 (Tecan) (assay 1) or the ECHO acoustic liquid handler system (Beckman Coulter) (assay 2), normalizing for added DMSO and including DMSO controls. For the T0 time point measurement, untreated cells are analyzed at the time of compound addition. Plates are incubated for 120 h, and cell viability is measured using CellTiter-Glo luminescent cell viability reagent (Promega product code G7570). Viability (stated as percent of control) is defined as relative luminescence units RLU of each well divided by the RLU of cells in DMSO controls. IC50 values are determined from viability measurements by non-linear regression using a four-parameter model.

Another assay concerns the target T1, KRAS (G13D) and SOS1 (Homo sapiens, UniProt P01116, C118S/G13D).
T1 construct: KRAS (G13D) 1-169, N-terminal 6His-tag for purification; 6His (N, cleaved yes); TEV cleavage site
The assay can be described thus: KRAS::SOS1 AlphaScreen binding assay, KRAS G13D. From the text: This assay can be used to examine the potency with which compounds according to the invention binding to (mutated) KRAS inhibit the protein-protein interaction between SOS1 and (mutated) KRAS e.g., KRAS WT, KRAS G12C, KRAS G12D, KRAS G12V or KRAS G13D. […] Low IC50 values in this assay setting are indicative of strong inhibition of protein-protein interaction between SOS1 and KRAS:
These assays measure the inhibitory effect of compounds on KRAS mutant protein-protein interactions using the Alpha Screen technology by Perkin Elmer. […]
Plates are kept at room temperature in a darkened incubator. After an additional 60 minutes incubation time the signal is measured in a PerkinElmer Envision HTS Multilabel Reader using the AlphaScreen specs from PerkinElmer. […]
As internal control known inhibitors of KRAS mutant::SOS1 interaction can be measured on each compound plate. […]
A general note: Bead proximity is the source of the signal in Alpha formats.

In assay [2] the test system is NCI-H358 cells. The assay can be described thus: NCI-H358 CTG proliferation assay (120 h), assay 1. It counts as cell-based. The note with it: Homo sapiens, 96 well, 2000 cells per well. As for the experimental part:
as §1

For orientation: IC50 means the concentration that gives 50% inhibition. A high value points to weaker potency.

T1 sequence (P01116 1-169 isoform P01116-2 G13D/C118S): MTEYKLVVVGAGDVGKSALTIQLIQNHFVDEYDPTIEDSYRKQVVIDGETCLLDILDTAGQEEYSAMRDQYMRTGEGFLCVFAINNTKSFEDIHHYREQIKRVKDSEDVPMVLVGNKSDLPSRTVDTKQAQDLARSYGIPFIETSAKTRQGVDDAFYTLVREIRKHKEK

Consider `C[C@H]1CN(C)CCN1c1cccc(-c2noc([C@@]3(C)CCCc4sc(N)c(C#N)c43)n2)n1` [Example V-1], for which the half-maximal inhibitory concentration (IC50) was 937 nM in the assay on NCI-H358 cells [1]; 928 nM on KRAS (G13D) and SOS1.
`C[C@H](Oc1cccc(-c2noc([C@@]3(C)CCCc4sc(N)c(C#N)c43)n2)n1)[C@@H]1CCCN1C` [Example V-8]: the IC50 amounted to 230 nM with NCI-H358 cells [1]; 176 nM on KRAS (G13D) and SOS1.
As for `CC(C)N1CCCN(c2nccc(-c3noc([C@@]4(C)CCCc5sc(N)c(C#N)c54)n3)n2)[C@@H](C)C1` [Example V-9], the IC50 in the assay on NCI-H358 cells [2] worked out at 698 nM; in the assay on NCI-H358 cells [1] it was 1190 nM.
The compound `C[C@H](Oc1nccc(-c2noc([C@@]3(C)CCCc4sc(N)c(C#N)c43)n2)n1)[C@@H]1CCCN1C` [Example V-10] came in with an IC50 in the assay on NCI-H358 cells [2] of 5410 nM.
`C[C@H](Oc1ccnc(-c2noc([C@@]3(C)CCCc4sc(N)c(C#N)c43)n2)n1)[C@@H]1CCCN1C` [Example V-11] came in with a 50% inhibitory concentration (IC50) in the assay with NCI-H358 cells [1] of 244 nM.
